Test results taken from patent US8168673B2, “Compounds having CRTH2 antagonist activity” (Oxagen Limited, priority 2008, dated 2012).

Experiments:
CRTH2 Receptor [1] = molecular target: T1, CRTH2 Receptor (Homo sapiens, UniProt Q9Y5Y4); experiment: Radioligand binding assay, [3H]PGD2 on CHO/CRTH2 cell membranes; settings: summary statement on Table 1
T1 construct: expressed in transfected cells; membranes
T1 sequence (Q9Y5Y4 1-395): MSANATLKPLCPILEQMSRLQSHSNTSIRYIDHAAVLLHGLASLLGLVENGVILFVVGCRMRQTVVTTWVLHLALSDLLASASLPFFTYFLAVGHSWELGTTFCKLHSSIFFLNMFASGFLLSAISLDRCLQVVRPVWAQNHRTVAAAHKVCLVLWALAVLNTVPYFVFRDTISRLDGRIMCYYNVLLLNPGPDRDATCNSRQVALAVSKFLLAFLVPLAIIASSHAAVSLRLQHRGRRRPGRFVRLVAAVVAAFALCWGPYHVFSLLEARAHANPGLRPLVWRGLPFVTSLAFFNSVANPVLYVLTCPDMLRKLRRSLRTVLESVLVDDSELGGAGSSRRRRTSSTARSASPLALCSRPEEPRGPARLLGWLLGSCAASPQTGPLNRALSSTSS

CRTH2 Receptor [2] = molecular target: T1, CRTH2 Receptor; experiment: as above; settings: [3H]PGD2 competition
Experimental: Chinese Hamster Ovary cells were transfected with CRTH2 or DP receptors (CHO/CRTH2 and CHO/DP) and were maintained in culture in a humidified atmosphere at 37° C. (5% CO2) in Minimum Essential Medium (MEM) supplemented with 10% foetal bovine serum, 2 mM glutamine, and 1 mg ml^−1 active G418. The cells were passaged every 2-3 days. For radioligand binding assay, cells were prepared in triple-layer flasks or in 175 cm^2 square flasks (for membrane preparation.
Membranes were prepared either from CHO/CRTH2 and CHO/DP cells, or from platelets (as a source of TP receptors). CHO cells grown to confluency were washed with PBS and detached using a Versene solution (15 ml per flask). When the cells were grown in 175 cm^2 square flask, they were collected by scrapping in PBS. The cell suspensions were centrifuged (1,700 rpm, 10 min, 4° C.) and resuspended in 15 ml of buffer (1×HBSS, supplemented with 10 mM HEPES, pH 7.3). Cell suspensions were then homogenised using an Ultra Turrax at setting 4-6 for 20 s. The homogenate was centrifuged at 1,700 rpm for 10 min and the supernatant was collected and centrifuged at 20,000 rpm for 1 h at 4° C. The resulting pellet was resuspended in buffer and stored at −80° C. in aliquots of 200-500 μl. The protein concentration was determined by the method of Bradford (1976), using bovine serum albumin as standard. The platelets were washed by centrifugation at 600×g for 10 min and resuspended in ice-cold assay buffer (10 mM Tris-HCl, pH 7.4, 5 mM Glucose, 120 mM NaCl, 10 μM indomethacin) and directly centrifuged at 20,000 rpm for 30 min at 4° C. The resulting pellet was treated as described above.
[^3H]PGD2 (160 Ci/mmol) binding experiments were performed on membranes prepared as described above. Assays were performed in a final volume of 100 μl of buffer (1×HBSS/HEPES 10 mM, pH 7.3). Cell membranes (15 μg) were preincubated at room temperature with varying concentration of competing ligand for 15 min. [^3H]PGD2 was then added and the incubation continued for a further one hour at room temperature. The reaction was terminated by the addition of 200 μl ice-cold assay buffer to each well, followed by rapid filtration through Whatman GF/B glass fibre filters using a Unifilter Cell harvester (PerkinElmer Life Sciences) and six washes of 300 μl of ice-cold buffer. The Unifilter plates were dried at room temperature for at least 1 h and the radioactivity retained on the filters was determined on a Beta Trilux counter (PerkinElmer Life Sciences), following addition of 40 μl of Optiphase Hi-Safe 3 (Wallac) liquid scintillation. Non specific binding was defined in the presence of 10 μM unlabelled PGD2. Assays were performed in duplicate.

[3] = test system: PGD2 induced eosinophil shape change; experiment: Human whole blood eosinophil shape change assay; format: cell-based; settings: for IC50: Eosinophil, human whole blood, 10 nM PGD2, read-out: IC50 Values for the Effect of Test Compounds on 10 nM PGD2-induced Eosinophil Shape Change; for activity in whole blood, in words: summary statement on Table 2
Experimental: Compounds 1 to 9 were assayed for their effect on PGD2 induced eosinophil shape change.
Compounds (1 μl, 200× final concentration) were added directly to 200 μl whole blood, mixed well and incubated for 15 min, 37° C., 5% CO2. After this time, cell shape was fixed by addition of 300 μl Cytofix™ buffer (BD Biosciences), 15 min on ice. 10 ml RBC lysis buffer was added to the fixed cells, incubated 5 min, at room temperature and centrifuged, 300×g for 5 min. Supernatant (containing lysed red cells) was removed and the lysis step was repeated. Leukocytes were resuspended in 250 μl RPMI/10% FCS and shape change analysed by FACS. Eosinophils were gated out based on their autofluorescence and 2000 eosinophil events were counted per sample. Data were analysed in triplicate.

Compound | intrinsic activity (CRTH2 antagonist), in words (CRTH2 Receptor [1]) | Ki (CRTH2 Receptor [2]) | IC50 [3] | activity in whole blood, in words [3]
Cc1c(Cc2ccccc2S(=O)(=O)C2CCCCC2)c2cc(F)ccc2n1CC(=O)O [Compound 1, 2-(3-(2-(Cyclohexylsulfonyl)benzyl)-5-fluoro-2-methyl-1H-indol-1-yl)acetic acid] | high intrinsic activity | 0.02 nM | 6 nM | activity is maintained in whole blood
Cc1c(Cc2ccccc2S(=O)(=O)N2CCCCC2)c2cc(F)ccc2n1CC(=O)O [Compound 2, 2-(5-Fluoro-2-methyl-3-(2-(piperidin-1-ylsulfonyl)benzyl)-1H-indol-1-yl)acetic Acid] | high intrinsic activity | 0.04 nM | 5 nM | activity is maintained in whole blood
Cc1c(Cc2ccccc2S(=O)(=O)C2CCCC2)c2cc(F)ccc2n1CC(=O)O [Compound 3, 2-(3-(2-(Cyclopentylsulfonyl)benzyl)-5-fluoro-2-methyl-1H-indol-1-yl)acetic Acid] | high intrinsic activity | 0.2 nM | 7 nM | activity is maintained in whole blood
Cc1c(Cc2cccc(S(=O)(=O)N3CCCCC3)c2)c2cc(F)ccc2n1CC(=O)O [Compound 4, 2-(5-Fluoro-2-methyl-3-(3-(piperidin-1-ylsulfonyl)benzyl)-1H-indol-1-yl)acetic Acid] |  | 55 nM |  | 
Cc1c(Cc2ccccc2S(=O)(=O)N2CCCC2)c2cc(F)ccc2n1CC(=O)O [Compound 5, 2-(5-Fluoro-2-methyl-3-(2-(pyrrolidin-1-ylsulfonyl)benzyl)-1H-indol-1-yl)acetic Acid] | high intrinsic activity |  | 5 nM | activity is maintained in whole blood
Cc1c(Cc2ccc(S(=O)(=O)C3CCCCC3)cc2)c2cc(F)ccc2n1CC(=O)O [Compound 6, 2-(3-(4-(Cyclohexylsulfonyl)benzyl)-5-fluoro-2-methyl-1H-indol-1-yl)acetic Acid] |  | 2 nM | 85 nM | 
Cc1c(Cc2ccc(S(=O)(=O)C3CCCC3)cc2)c2cc(F)ccc2n1CC(=O)O [Compound 7, 2-(3-(4-(Cyclopentylsulfonyl)benzyl)-5-fluoro-2-methyl-1H-indol-1-yl)acetic Acid] |  | 5 nM | 44 nM | 
Cc1c(Cc2ccccc2S(=O)(=O)C2CCC2)c2cc(F)ccc2n1CC(=O)O [Compound 8, 2-(3-(2-(Cyclobutylsulfonyl)benzyl)-5-fluoro-2-methyl-1H-indol-1-yl)acetic Acid] |  | 3 nM | 240 nM | 
Cc1c(Cc2cccc(S(=O)(=O)N3CCCC3)c2)c2cc(F)ccc2n1CC(=O)O [Compound 9, 2-(5-Fluoro-2-methyl-3-(3-(pyrrolidin-1-ylsulfonyl)benzyl)-1H-indol-1-yl)acetic Acid] |  | 100 nM |  | 
Cc1c(Cc2ccc(S(=O)(=O)N3CCCCC3)cc2)c2cc(F)ccc2n1CC(=O)O [Compound 10, 2-(5-Fluoro-2-methyl-3-(4-(piperidin-1-ylsulfonyl)benzyl)-1H-indol-1-yl)acetic Acid] |  | 1 nM |  | 
